Common to all, as to assay type: cell-based
The subject of one assay is Penicillium chrysogenum. In words: Fungus resistance test for painted surfaces containing antifungal additives (defacement rating). On the set-up: key: 10 = no defacement, 0 = completely defaced. The protocol:
(§1) A Defacement Rating is measured by estimating the percentage of surface defacement with 10 being no defacement and 0 begin completely defaced.
(§2) This test was used to evaluate the resistance of paint films containing antifungal additives to surface fungal growth.
(§3) Olympic® Home interior flat latex paint (PPG Industries, Pittsburgh, Pa.) and Valspar® QuikHide White flat interior paint (Valspar Corporation, Minneapolis, Minn.) were used for all studies unless otherwise noted. Stock solutions of the antifungal additives of interest were prepared in reagent grade dimethyl sulfoxide (DMSO; Alfa Aesar, Ward Hill, Mass.). Additives were spiked (by adding appropriate amounts of the antifungal stock solutions) into the liquid paint at specified concentrations. Samples of the additive-spiked paint were vigorously mixed with a vortex mixer for at least one minute to ensure uniform dispersion of the additive in the paint. […] Studies that use other brands of paint followed the same protocol as described for those using the Olympic® Home interior flat latex paint and Valspar® QuikHide paint.
(§4) Test surfaces were prepared in triplicate. In most cases, the tested conditions were repeated on a different date, again in triplicate. […] Two coats of paint were applied with a polyester brush to completely cover both faces of the filter paper disc, allowing at least four hours drying time between coats.
(§5) Nutrient-Salts Agar (NSA) medium was prepared according to ASTM method G21-13 in 100×15 mm sterile polystyrene petri dishes (VWR® Radnor, Pa.) with a solidified agar layer of about 3 to about 6 mm (⅛ to ¼ in.) in depth. The agar was allowed to solidify for at least 24 hours before being used. The painted test filter paper discs were placed in the center of the agar plates in a biosafety hood while wearing clean nitrile gloves.
(§6) The paint coatings were evaluated against three representative cellulose-supportable fungi: Stachybotrys chartarum, Penicillium chrysogenum, and Alternaria alternata. […] Fungal isolates of Alternaria alternata and Penicillium chrysogenum were obtained from the Plant Pathology and Environmental Microbiology Department at Penn State University.
(§7) A spore suspension of each of these fungi was prepared by pouring a 20-mL portion of autoclaved deionized water containing 0.01% Tween® 20 onto a subculture of each fungal species. Spores were counted with the use of a hemocytometer (Hausser Scientific, Horsham, Pa.) under a compound light microscope. Spore suspensions of Stachybotrys chartarum and Penicillium chrysogenum were diluted to 1×10^6 spores/mL with autoclaved deionized water. Spore suspensions of Alternaria alternata were used “as is” in the range of 200,000 to 400,000 spores/mL.
(§8) Painted test surfaces were inoculated with a spray bottle or with a sterile cotton-tipped applicator. To inoculate the sample with a spray bottle, the spore suspension was sprayed twice on the painted test discs with an autoclaved spray bottle that delivered approximately 0.14 g of fluid per spray. To inoculate the sample with a cotton-tipped applicator, an autoclaved cotton-tipped applicator was submerged in approximately 400 μL of the spore inoculum solution (spore concentrations described above) and applied evenly over the surface of the painted test surface twice. A fresh autoclaved cotton-tipped applicator was used for the application of each painted disc. All the paint studies with Alternaria alternata and Stachybotrys chartarum were inoculated using the spray bottle method. For studies with Penicillium chrysogenum using Olympic® Home paint, the spray bottle inoculation method was used. For studies with Penicillium chrysogenum using Valspar® QuikHide paint, the cotton-tipped applicator inoculation method was used.
(§9) After inoculation, the NSA agar plates were sealed with Parafilm®.

The next assay relates to Stachybotrys chartarum. The assay is described as above. Also on record: key: 10 = no defacement, 0 = completely defaced. The method, then:
as §1, §2, §3, §4, §5, §6, §7, §8, §9

A further assay deals with Alternaria alternata. The assay is described as above. Also on record: key: 10 = no defacement, 0 = completely defaced. The method, then: as §1, §2, §3, §4, §5, §6, §7, §8, §9
The next assay relates to Aspergillus fumigatus. The experiment in a line: 3 day MIC, broth microdilution in 25% PDB. To be noted: 72 h. The method, then:
Stock solutions (concentrations of between 4,000 μg/mL to 10,000 μg/mL; stored at −18° C.) of the above antifungals were prepared in dimethyl sulfoxide (DMSO). The stock solutions were further diluted into sterile 25% potato dextrose broth (PDB) so that the diluted solutions could be used for the antifungal susceptibility studies. This way, a typical microdilution study would reach a final ratio of about 0.5-2% v/v of DMSO in 25% PDB.
Spore inocula were prepared in sterile distilled water with 0.1% Tween® 20 (a polysorbate surfactant), and a hemocytometer was used to determine the spore density. Typically, the spore inoculum was prepared fresh prior to each study, and the inoculum was appropriately diluted to a final concentration of 0.4-1×10^5 spores/mL or colony-forming unit (CFU)/mL in each study. The spore suspension can be stored in a refrigerator at 4° C. for up to one week.
The minimal inhibitory concentrations (MICs) for individual antifungal agents were determined by following a modified broth microdilution protocol CLSI (Clinical and Laboratory Standards Institute) M38-A2 [Clinical and Laboratory Standards Institute (2008) Reference method for broth dilution antifungal susceptibility testing of filamentous fungi—2nd edition: Approved Standard M38-A2, CLSI, Wayne, Pa.] where 25% potato dextrose broth (PDB) was used as the medium. The studies were performed in flat bottom, 96-well microtiter plates (Greiner Bio-One, Frickenhausen, Germany).
Plates sealed with clear polyester film (VWR, Radnor, Pa.) were incubated at a temperature of about 25° C. The progress of fungal growth was monitored at 48 hours and 72 hours.

The mark [1] stands for this setting: +100 μg/mL in Olympic Home paint, 7 days.
Setting [2] is: +100 μg/mL in Olympic Home paint, 14 days.
Setting [3] is: +100 μg/mL in Olympic Home paint, 21 days.
The mark [4] stands for this setting: +200 μg/mL in Olympic Home paint, 7 days.
[5] abbreviates: +200 μg/mL in Olympic Home paint, 14 days.
[6] abbreviates: +200 μg/mL in Olympic Home paint, 21 days.
Setting [7] is: +10 μg/mL in Olympic Home paint, 7 days.
The mark [8] stands for this setting: +10 μg/mL in Olympic Home paint, 14 days.
The mark [9] stands for this setting: +10 μg/mL in Olympic Home paint, 21 days.

≈ marks a conversion by molar mass, not a printed value.

In the case of `c1ccc2[nH]c(-c3cscn3)nc2c1` [Thiabendazole], the “Average defacement rating ± standard deviation” value in the assay on Penicillium chrysogenum (setting [1]) is 4.1 ± 0.0; with Penicillium chrysogenum (setting [2]), 0.4 ± 0.4; in the assay on Penicillium chrysogenum (setting [3]), 0.0 ± 0.0; in the assay with Penicillium chrysogenum (setting [4]) it was 9.3 ± 1.2; in the assay on Penicillium chrysogenum (setting [5]), 4.0 ± 4.7; in the assay on Penicillium chrysogenum (setting [6]), 1.7 ± 3.6. Further, the “Average defacement rating ± standard deviation” value with Penicillium chrysogenum (+200 μg/mL in Valspar QuikHide paint, 7 days) was found to be 10.0 ± 0.0; in the assay on Penicillium chrysogenum (+200 μg/mL in Valspar QuikHide paint, 14 days), 9.3 ± 1.2; in the assay with Penicillium chrysogenum (+200 μg/mL in Valspar QuikHide paint, 21 days) it was 4.7 ± 4.6; with Stachybotrys chartarum (setting [1]), 1.3 ± 0.3; in the assay on Stachybotrys chartarum (setting [2]) it was 0.0 ± 0.0; in the assay with Stachybotrys chartarum (setting [3]), 0.0 ± 0.0. Also, the “Average defacement rating ± standard deviation” value in the assay with Alternaria alternata (setting [1]), in the assay on Alternaria alternata (setting [2]) and with Alternaria alternata (setting [3]) was 0.0 ± 0.0 in each case. In addition, the MIC against Aspergillus fumigatus turned out to be 6.25 µg/mL (≈ 31.1 µM).

For `OB1OCc2cc(Cl)ccc21` [Compound B8, 5-chloro-1,3-dihydro-2,1-benzoxaborol-1-ol], the “Average defacement rating ± standard deviation” value is 7.3 ± 1.3 in the assay on Penicillium chrysogenum (setting [1]); 0.0 ± 0.0 in the assay on Penicillium chrysogenum (setting [2]); 0.0 ± 0.0 in the assay with Penicillium chrysogenum (setting [3]); 10.0±0.0 in the assay with Penicillium chrysogenum (setting [4]); 9.5 ± 1.2 in the assay on Penicillium chrysogenum (setting [5]); 8.7 ± 2.3 with Penicillium chrysogenum (setting [6]). In addition, the “Average defacement rating ± standard deviation” value in the assay on Stachybotrys chartarum (setting [7]) was found to be 5.7 ± 4.9; in the assay on Stachybotrys chartarum (setting [8]) it was 0.0 ± 0.0; with Stachybotrys chartarum (setting [9]), 0.0 ± 0.0; with Stachybotrys chartarum (setting [1]) it was 9.9±0.4; with Stachybotrys chartarum (setting [2]), 8.1 ± 1.9; in the assay on Alternaria alternata (setting [7]), 5.0 ± 1.0. Moreover, the “Average defacement rating ± standard deviation” value in the assay on Alternaria alternata (setting [8]) was found to be 4.7 ± 1.2; in the assay on Alternaria alternata (setting [9]), 4.7 ± 1.2; in the assay with Alternaria alternata (setting [1]), 9.9±0.4; in the assay with Alternaria alternata (setting [2]) it was 8.1 ± 1.5; with Alternaria alternata (setting [3]) it was 7.8±1.5. The same molecule showed an MIC against Aspergillus fumigatus of 0.5 µg/mL (≈ 2.97 µM).

These data come from patent publication US10160867B2, “Benzoxaborole-containing coating resistant to cellulose-supportable fungus” (THE PENN STATE RESEARCH FOUNDATION, priority 2015, dated 2018).
